Measured values as given in US20160282364A1, “ASSAY FOR INSULIN-DEGRADING ENZYME (IDE) INHIBITORS” (PRESIDENT AND FELLOWS OF HARVARD COLLEGE, priority 2013, published 2016).

Legend:
Assay in all cases: Small molecule-enzyme mutant complementation study
Type in all cases: biochemical
hIDE A198Q = target: T1, hIDE A198Q (Homo sapiens, UniProt P14735, A198Q); conditions: A198Q vs hIDE WT, batch 1
T1 construct: The reported N-His6-tagged human IDE42-1019 construct; made in house; host or cells: E. coli Rosetta 2 (DE3) pLysS
T1 sequence (P14735 42-1019 A198Q): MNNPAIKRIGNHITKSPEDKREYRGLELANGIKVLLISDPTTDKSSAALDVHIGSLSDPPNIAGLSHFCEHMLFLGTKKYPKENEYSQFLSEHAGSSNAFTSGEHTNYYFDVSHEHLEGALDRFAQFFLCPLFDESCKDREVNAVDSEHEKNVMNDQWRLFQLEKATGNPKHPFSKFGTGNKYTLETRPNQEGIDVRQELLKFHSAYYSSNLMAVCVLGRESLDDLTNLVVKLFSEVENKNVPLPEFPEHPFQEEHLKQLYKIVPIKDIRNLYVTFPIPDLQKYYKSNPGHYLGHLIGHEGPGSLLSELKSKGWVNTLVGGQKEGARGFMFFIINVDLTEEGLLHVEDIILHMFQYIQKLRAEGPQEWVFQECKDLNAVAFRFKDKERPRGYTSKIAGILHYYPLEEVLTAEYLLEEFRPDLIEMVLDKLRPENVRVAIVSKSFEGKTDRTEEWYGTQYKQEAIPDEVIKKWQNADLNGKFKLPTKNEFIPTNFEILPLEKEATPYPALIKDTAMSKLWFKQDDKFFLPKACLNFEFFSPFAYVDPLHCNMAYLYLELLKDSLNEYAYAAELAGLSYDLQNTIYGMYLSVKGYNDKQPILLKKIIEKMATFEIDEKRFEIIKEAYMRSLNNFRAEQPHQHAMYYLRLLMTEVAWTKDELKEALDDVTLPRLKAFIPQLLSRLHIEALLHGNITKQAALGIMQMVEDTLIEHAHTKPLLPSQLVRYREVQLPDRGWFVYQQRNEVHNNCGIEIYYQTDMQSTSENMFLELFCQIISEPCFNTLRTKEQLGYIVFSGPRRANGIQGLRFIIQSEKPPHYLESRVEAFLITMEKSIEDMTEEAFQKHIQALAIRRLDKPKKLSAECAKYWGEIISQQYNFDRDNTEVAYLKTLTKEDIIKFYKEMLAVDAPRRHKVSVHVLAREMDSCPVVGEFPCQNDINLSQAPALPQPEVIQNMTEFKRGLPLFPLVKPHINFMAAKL
Description: (§1) Protease assays with fluorogenic peptide substrates. […] All assay data points were obtained in duplicate.
(§2) Site-directed mutagenesis, expression, and purification of human IDE. The reported N-His6-tagged human IDE42-1019 construct was introduced in the expression plasmid pTrcHis-A (Invitrogen) using primers for uracil-specific excision reactions (USER) by Taq (NEB) and Pfu polymerases (PfuTurbo CX®, Agilent). The IDE gene was amplified with the primers 5′-[…]-dU-[…] and 5′-[…] G-dU-[…] (underlined sequences represent overhangs, and italics highlight the PCR priming sequence). Similarly, the pTrcHis-A vector was amplified for USER cloning with the primers 5′-[…] TGA-dU-[…] CCC and 5′-[…]-dU-[…]. Mutant IDE constructs were generated by amplifying the full vector construct with USER cloning primers introducing a mutant overhang (Table 5).
(§3) All PCR products were purified on microcentrifuge membrane columns (MinElute®, Qiagen) and quantified by UV absorbance (NanoDrop). Each fragment (0.2 pmol) was combined in a 10 μL reaction mixture containing 20 units DpnI (NEB), 0.75 units of USER mix (Endonuclease VIII and Uracil-DNA Glycosylase, NEB), 20 mM Tris-acetate, 50 mM potassium acetate, 10 mM magnesium acetate, 1 mM dithiothreitol at pH 7.9 (1× NEBuffer 4). The reactions were incubated at 37° C. for 45 min, followed by heating to 80° C. and slow cooling to 30° C. (0.2° C./s). The hybridized constructs were directly used for heat-shock transformation of chemically competent NEB turbo E. coli cells according to the manufacturer's instructions. Transformants were selected on carbenicillin LB agar, and isolated colonies were cultured overnight in 2 mL LB.
(§4) The plasmid was extracted using a microcentrifuge membrane column kit (Miniprep®, Qiagen), and the sequence of genes and vector junctions were confirmed by Sanger sequencing (Table 6). The plasmid constructs were transformed by heat-shock into chemically-competent expression strain Rosetta 2 (DE3) pLysS E. coli cells (EMD Millipore), and selected on carbenicillin/chloramphenicol LB agar. Cells transformed with IDE pTrcHis A constructs were cultured overnight at 37° C. in 2 XYT media (31 g in 1 L) containing 100 μg/mL ampicillin and 34 μg/mL chloramphenicol. Expression of His6-tagged IDE proteins was induced when the culture measured OD600 ˜0.6 by addition of isopropyl-β-D-1-thiogalactopyranoside (IPTG) to 1 mM final concentration, incubated overnight at 37° C., followed by centrifugation at 10,000 g for 30 min at 4° C.
(§5) Recombinant His6-tagged proteins were purified by Ni(II)-affinity chromatography (IMAC sepharose beads, GE Healthcare®) according to the manufacturer's instructions. The cell pellets were resuspended in pH 8.0 buffer containing 50 mM phosphate, 300 mM NaCl, 10 mM imidazole, 1% Triton X-100 and 1 mM tris(2-carboxyethyl)phosphine hydrochloride (TCEP), and were lysed by probe sonication for 4 min at 4° C., followed by clearing of cell debris by centrifugation at 10,000 g for 25 min at 4° C. The supernatant was incubated with Ni(II)-doped IMAC resin (2 mL) for 3 h at 4° C. The resin was washed twice with the cell resuspension/lysis buffer, and three times with pH 8.0 buffer containing 50 mM phosphate, 300 mM NaCl,50 mM imidazole and 1 mM TCEP. Elution was performed in 2 mL aliquots by raising the imidazole concentration to 250 mM and subsequently to 500 mM in the previous buffer. The fractions were combined and the buffer was exchanged to the recommended IDE buffer (R&D) using spin columns with 100 KDa molecular weight cut off membranes (Millipore). Protein yields were typically ˜10 μg/L, and >90% purity based on gel electrophoresis analysis (Coomassie stained).

hIDE A198Y = target: T2, hIDE A198Y (Homo sapiens, UniProt P14735, A198Y); conditions: A198Y vs hIDE WT, batch 2
T2 construct: The reported N-His6-tagged human IDE42-1019 construct; made in house; host or cells: E. coli Rosetta 2 (DE3) pLysS
T2 sequence (P14735 42-1019 A198Y): as the sequence (P14735 42-1019 A198Q) above, with Q157Y counted along it
Description: as §1, §2, §3, §4, §5

hIDE F202L = target: T3, hIDE F202L (Homo sapiens, UniProt P14735, F202L); conditions: F202L vs hIDE WT, batch 1
T3 construct: The reported N-His6-tagged human IDE42-1019 construct; made in house; host or cells: E. coli Rosetta 2 (DE3) pLysS
T3 sequence (P14735 42-1019 F202L): as the sequence (P14735 42-1019 A198Q) above, with Q157A, F161L counted along it
Description: as §1, §2, §3, §4, §5

hIDE F202R = target: T4, hIDE F202R (Homo sapiens, UniProt P14735, F202R); conditions: F202R vs hIDE WT, batch 2
T4 construct: The reported N-His6-tagged human IDE42-1019 construct; made in house; host or cells: E. coli Rosetta 2 (DE3) pLysS
T4 sequence (P14735 42-1019 F202R): as the sequence (P14735 42-1019 A198Q) above, with Q157A, F161R counted along it
Description: as §1, §2, §3, §4, §5

hIDE G361Q = target: T5, hIDE G361Q (Homo sapiens, UniProt P14735, G361Q); conditions: G361Q vs hIDE WT, batch 3
T5 construct: The reported N-His6-tagged human IDE42-1019 construct was introduced in the expression plasmid pTrcHis-A; made in house; host or cells: E. coli Rosetta 2 (DE3) pLysS
T5 sequence (P14735 42-1019 G361Q): as the sequence (P14735 42-1019 A198Q) above, with Q157A, G320Q counted along it
Description: as §1, §2, §3, §4, §5

hIDE I310R = target: T6, hIDE I310R (Homo sapiens, UniProt P14735, I310R); conditions: I310R vs hIDE WT, batch 2
T6 construct: The reported N-His6-tagged human IDE42-1019 construct; made in house; host or cells: E. coli Rosetta 2 (DE3) pLysS
T6 sequence (P14735 42-1019 I310R): as the sequence (P14735 42-1019 A198Q) above, with Q157A, I269R counted along it
Description: as §1, §2, §3, §4, §5

hIDE I374M = target: T7, hIDE I374M (Homo sapiens, UniProt P14735, I374M); conditions: I374M vs hIDE WT, batch 1
T7 construct: The reported N-His6-tagged human IDE42-1019 construct was introduced in the expression plasmid pTrcHis-A; made in house; host or cells: E. coli Rosetta 2 (DE3) pLysS
T7 sequence (P14735 42-1019 I374M): as the sequence (P14735 42-1019 A198Q) above, with Q157A, I333M counted along it
Description: as §1, §2, §3, §4, §5

hIDE K364A = target: T8, hIDE K364A (Homo sapiens, UniProt P14735, K364A); conditions: K364A vs hIDE WT, batch 2
T8 construct: The reported N-His6-tagged human IDE42-1019 construct was introduced in the expression plasmid pTrcHis-A; made in house; host or cells: E. coli Rosetta 2 (DE3) pLysS
T8 sequence (P14735 42-1019 K364A): as the sequence (P14735 42-1019 A198Q) above, with Q157A, K323A counted along it
Description: as §1, §2, §3, §4, §5

hIDE V360R = target: T9, hIDE V360R (Homo sapiens, UniProt P14735, V360R); conditions: V360R vs hIDE WT, batch 3
T9 construct: The reported N-His6-tagged human IDE42-1019 construct was introduced in the expression plasmid pTrcHis-A; made in house; host or cells: E. coli Rosetta 2 (DE3) pLysS
T9 sequence (P14735 42-1019 V360R): as the sequence (P14735 42-1019 A198Q) above, with Q157A, V319R counted along it
Description: as §1, §2, §3, §4, §5

hIDE W199F = target: T10, hIDE W199F (Homo sapiens, UniProt P14735, W199F); conditions: W199F vs hIDE WT, batch 2
T10 construct: The reported N-His6-tagged human IDE42-1019 construct; made in house; host or cells: E. coli Rosetta 2 (DE3) pLysS
T10 sequence (P14735 42-1019 W199F): as the sequence (P14735 42-1019 A198Q) above, with Q157A, W158F counted along it
Description: as §1, §2, §3, §4, §5

hIDE W199Y = target: T11, hIDE W199Y (Homo sapiens, UniProt P14735, W199Y); conditions: W199Y vs hIDE WT, batch 2
T11 construct: The reported N-His6-tagged human IDE42-1019 construct; made in house; host or cells: E. coli Rosetta 2 (DE3) pLysS
T11 sequence (P14735 42-1019 W199Y): as the sequence (P14735 42-1019 A198Q) above, with Q157A, W158Y counted along it
Description: as §1, §2, §3, §4, §5

hIDE Y314F = target: T12, hIDE Y314F (Homo sapiens, UniProt P14735, Y314F); conditions: Y314F vs hIDE WT, batch 2
T12 construct: The reported N-His6-tagged human IDE42-1019 construct; made in house; host or cells: E. coli Rosetta 2 (DE3) pLysS
T12 sequence (P14735 42-1019 Y314F): as the sequence (P14735 42-1019 A198Q) above, with Q157A, Y273F counted along it
Description: as §1, §2, §3, §4, §5

IC50 shift (hIDE A198Q): 2.3 fold | IC50 shift (hIDE A198Y): 0.5 fold | IC50 shift (hIDE F202L): 1.7 fold | IC50 shift (hIDE F202R): 3.7 fold | IC50 shift (hIDE G361Q): 0.8 fold | IC50 shift (hIDE I310R): 0.8 fold | IC50 shift (hIDE I374M): 0.7 fold | IC50 shift (hIDE K364A): 26 fold | IC50 shift (hIDE V360R): 1.4 fold | IC50 shift (hIDE W199F): 3.0 fold | IC50 shift (hIDE W199Y): 1.8 fold | IC50 shift (hIDE Y314F): 1.2 fold
Compound: NC(=O)CCC1NC(=O)C=CC(=O)NC(C(N)=O)CCCCNC(=O)C(Cc2ccc(C(=O)c3ccccc3)cc2)NC(=O)C(CC2CCCCC2)NC1=O (stereo not drawn) [Compound 6b]
